Data: patent US11173156B2, “Solid forms of a kynurenine-3-monooxygenase inhibitor” (CHDI Foundation, Inc., priority 2019, dated 2021)

Legend:
Assay type in all cases: physicochemical
[1] = Solubility of Compound I sodium salt forms in solvents and binary solvent systems; conditions: thermodynamic from solid, 60° C., read-out: Solubility
Procedure: (§1) A weighed sample was treated with aliquots of the test solvent at room temperature. The mixture was sonicated between additions to facilitate dissolution. Complete dissolution of the test material was determined by visual inspection. Solubility was estimated based on the total solvent used to provide complete dissolution. Some samples were then heated and observed visually for complete dissolution. The actual solubility may be greater than the value calculated because of the use of solvent aliquots that were too large or due to a slow rate of dissolution. […] If complete dissolution was achieved as a result of only one aliquot addition, the solubility is expressed as “greater than.”

[2] = Slurry experiments (form stability); conditions: for XRPD: room temp.; for relative stability of the form (in words): at the conditions evaluated
Procedure: Solutions were prepared by adding enough solids to a given solvent so that excess solids were present. The mixture was then agitated in a sealed vial at either ambient or an elevated temperature. After a given amount of time, the solids were isolated for analysis.
The formation and stability of solid forms of the sodium salt of Compound I was further evaluated via slurry experiments. The slurries were formed by combining Compound I sodium Pattern A and a solvent, and allowing the slurry to equilibrate at room temperature. If a free flowing slurry was not achieved, an additional amount of the respective solvent was added before the room temperature equilibration step. All slurries were isolated via centrifuge filtration after five days and twelve days of equilibration. The solids were analyzed by XRPD to check for pattern conversion (Table 13).

[3] = Dynamic vapor sorption/desorption (DVS); conditions: for material recovered from the DVS analysis compared with starting material by XRPD: after DVS; for DVS weight loss: from about 95% to about 5% RH
Procedure: Moisture sorption/desorption data were collected on a VTI SGA-100 Vapor Sorption Analyzer. NaCl and PVP were used as calibration standards. Samples were not dried prior to analysis. Sorption and desorption data were collected over a range from 5% to 95% RH at 10% RH increments under a nitrogen purge. The equilibrium criterion used for analysis was less than 0.0100% weight change in 5 minutes with a maximum equilibration time of 3 hours. Data were not corrected for the initial moisture content of the samples.

[4] = Stability at elevated temperatures (XRPD, HPLC); conditions: for chemical and physical form changes after storing at elevated temperature: about 60° C.; for HPLC: after storage at 60 ° C. (time point not given)
Procedure: The stability of Compound I sodium Patterns A, C, and D and Form B, at about 60° C. was evaluated. These forms were weighed into vials covered with a Kimwipe tissue and stored in an oven at 60° C. and ambient pressure. After three days and ten days of exposure, the solids were analyzed by XRPD to check for form conversion. […].

[5] = XRPD analysis of remaining solids from aqueous solubility assessments; conditions: solids recovered from mother liquor of aqueous solubility assessment
Description: Compound I ethylenediamine A+B disproportionated, as peaks similar to those observed for Compound I free acid Material C were observed.

[6] = Approximate aqueous solubility of salts/co-crystals (visual, solvent addition method); conditions: water; for solubility: estimated visually, solvent addition method
Procedure: as §1

[7] = Deliquescence of salts/co-crystals during exposure to 75% RH; conditions: ambient temperature, 3 day exposure, visual
Procedure: The salts identified from the salt/co-crystal screen of Compound I (see section 4 above) were assessed visually for deliquescence during exposure to 75% RH at ambient temperature (Table 5). […] The materials from these experiments were recovered and re-analyzed by XRPD to determine if changes in solid form occurred.

[8] = acetone and/or isopropanol (trituration, single form or competitive slurry)
[9] = solvent systems with high water activity
[10] = listed as Ethylenediamine B + A

SMILES: O=C(O)c1cc(-c2ccc(OC3CC3)c(Cl)c2)ncn1 [Compound I sodium Pattern A, 6-(3-chloro-4-cyclopropoxyphenyl)pyrimidine-4-carboxylic acid]
- solubility ([1]; organic solvent or mixture, 2-MeTHF): < 1100 µg/mL
- solubility ([1]; organic solvent or mixture, ACN): < 1200 µg/mL
- solubility ([1]; organic solvent or mixture, Acetone): < 1300 µg/mL
- solubility ([1]; organic solvent or mixture, BuOH): < 1200 µg/mL
- solubility ([1]; organic solvent or mixture, DCM): < 1300 µg/mL
- solubility ([1]; organic solvent or mixture, DMF): 5800 to 7700 µg/mL
- solubility ([1]; organic solvent or mixture, DMSO): 7500 to 11300 µg/mL
- solubility ([1]; organic solvent or mixture, EtOAc): < 1100 µg/mL
- solubility ([1]; organic solvent or mixture, EtOH): < 1300 µg/mL
- solubility ([1]; organic solvent or mixture, Heptane): < 1200 µg/mL
- solubility ([1]; organic solvent or mixture, IPA): < 1100 µg/mL
- solubility ([1]; organic solvent or mixture, IPAc): < 1100 µg/mL
- solubility ([1]; organic solvent or mixture, MEK): < 1300 µg/mL
- solubility ([1]; organic solvent or mixture, MIBK): < 1200 µg/mL
- solubility ([1]; organic solvent or mixture, MTBE): < 1100 µg/mL
- solubility ([1]; organic solvent or mixture, MeOH): 5000 to 6700 µg/mL
- solubility ([1]; organic solvent or mixture, NMP): 10300 to 20500 µg/mL
- solubility ([1]; organic solvent or mixture, THF): < 1300 µg/mL
- solubility ([1]; organic solvent or mixture, Toluene): < 1100 µg/mL
- solubility ([1]; organic solvent or mixture, c-Hexane): < 1200 µg/mL
- solubility ([1]; Water): 10000 to 20000 µg/mL
- XRPD ([2]; ACN slurry, 12 days, dry): Amorphous
- XRPD ([2]; ACN slurry, 12 days, wet): Amorphous
- XRPD ([2]; DCM slurry, 12 days, dry): Low
- XRPD ([2]; DCM slurry, 12 days, wet): Low
- XRPD ([2]; EtOAc slurry, 5 days): Amorphous
- XRPD ([2]; EtOH slurry, 5 days): Amorphous
- XRPD ([2]; THF slurry, 5 days): Amorphous
- XRPD ([2]; THF slurry, 12 days, dry): Amorphous
- XRPD ([2]; THF slurry, 12 days, wet): Amorphous
- form conversion in slurry / trituration [2, 8]: converted to Compound I sodium Form B
- relative stability of the form (in words) [2]: metastable relative to Compound I sodium Form B
- form conversion in slurry / trituration [2, 9]: rehydrated to Compound I Form E
- stability in slurry (in words) ([2]; water, toluene, DCM and MEK): stable as a single form for about five days
- hygroscopicity by DVS analysis (in words) [3]: hygroscopic
- deliquescence (in words) ([3]; DVS analysis): did not show any indications of deliquescence
- material recovered from the DVS analysis compared with starting material by XRPD [3]: substantially the same as the starting material
- DVS weight gain ([3]; at 60% RH): about 4.9%
- DVS weight gain ([3]; at 90% RH): about 21.2%
- chemical and physical form changes after storing at elevated temperature [4]: No chemical and physical form changes were observed
- HPLC [4]: >99.9 % AUC

SMILES: O=C(O)c1cc(-c2ccc(OC3CC3)c(Cl)c2)ncn1 [Compound I ethylenediamine Materials A+B, 6-(3-chloro-4-cyclopropoxyphenyl)pyrimidine-4-carboxylic acid]
- Result (XRPD of remaining solids) ([5]; listed as Compound I ethylenediamine A+B): disproportionated
- Result (XRPD of remaining solids) [5, 10]: Ethylenediamine B + Free Acid C
- aqueous solubility (in words) [6]: suitable aqueous solubility
- solubility [6, 10]: <10 mg/mL
- Observation (deliquescence) [7]: no deliquescence

SMILES: O=C(O)c1cc(-c2ccc(OC3CC3)c(Cl)c2)ncn1 (racemic) [Compound I arginine Material A, 6-(3-chloro-4-cyclopropoxyphenyl)pyrimidine-4-carboxylic acid]
- aqueous solubility (in words) ([6]; listed as Compound I Arginine Material A): suitable aqueous solubility

SMILES: O=C(O)c1cc(-c2ccc(OC3CC3)c(Cl)c2)ncn1 (racemic) [Compound I lysine Material A, 6-(3-chloro-4-cyclopropoxyphenyl)pyrimidine-4-carboxylic acid]
- solubility ([6]; thermodynamic from solid, read-out: Solubility): < 4 mg/mL
- aqueous solubility (in words) ([6]; listed as Compound I lysine material A): poor low aqueous solubility
- Observation (deliquescence) [7]: no deliquescence

SMILES: O=C(O)c1cc(-c2ccc(OC3CC3)c(Cl)c2)ncn1 [Compound I sodium Pattern C, 6-(3-chloro-4-cyclopropoxyphenyl)pyrimidine-4-carboxylic acid]
- form conversion in slurry / trituration [2, 8]: converted to Compound I sodium Form B
- relative stability of the form (in words) [2]: not stable
- time stable in slurry ([2]; methanol): about 10 days
- form conversion in slurry / trituration [2, 9]: covert to Compound I sodium Form E
- hygroscopicity by DVS analysis (in words) [3]: slightly hygroscopic
- material recovered from the DVS analysis compared with starting material by XRPD [3]: substantially the same as the starting material
- DVS weight gain ([3]; at 60% RH): about 1.9%
- DVS weight gain ([3]; at 90% RH): about 8.4%
- chemical and physical form changes after storing at elevated temperature [4]: No chemical and physical form changes were observed
- HPLC [4]: >99.9 % AUC

SMILES: O=C(O)c1cc(-c2ccc(OC3CC3)c(Cl)c2)ncn1 [Compound I diethylamine Material A, 6-(3-chloro-4-cyclopropoxyphenyl)pyrimidine-4-carboxylic acid]
- aqueous solubility (in words) [6]: desirable aqueous solubility
- solubility [6]: ~30 mg/mL
- solubility ([6]; listed as Diethylamine A): >30 mg/mL
- hygroscopicity by DVS analysis (in words) [3]: hygroscopic
- DVS weight loss upon equilibration at about 5% RH [3]: about 0.08%
- material recovered from the DVS analysis compared with starting material by XRPD [3]: substantially the same as the starting material
- DVS weight gain ([3]; from about 5 to about 95% RH): ~2.12%
- DVS weight loss [3]: ~1.92%
- gain observed by DVS analysis ([3]; sorption cycle): ~2 wt %
- Observation (deliquescence) [7]: no deliquescence

SMILES: O=C(O)c1cc(-c2ccc(OC3CC3)c(Cl)c2)ncn1 [Compound I meglumine Material A, 6-(3-chloro-4-cyclopropoxyphenyl)pyrimidine-4-carboxylic acid]
- aqueous solubility (in words) [6]: suitable aqueous solubility

SMILES: O=C(O)c1cc(-c2ccc(OC3CC3)c(Cl)c2)ncn1 [Compound I ethanolamine Material A, 6-(3-chloro-4-cyclopropoxyphenyl)pyrimidine-4-carboxylic acid]
- aqueous solubility (in words) [6]: poor low aqueous solubility
- solubility ([6]; listed as Ethanolamine A): <4 mg/mL
- Observation (deliquescence) [7]: no deliquescence

SMILES: O=C(O)c1cc(-c2ccc(OC3CC3)c(Cl)c2)ncn1 [Compound I tromethamine Form A, 6-(3-chloro-4-cyclopropoxyphenyl)pyrimidine-4-carboxylic acid]
- aqueous solubility (in words) [6]: desirable aqueous solubility
- solubility [6]: ~134 mg/mL
- solubility ([6]; listed as Tromethamine A): >134 mg/mL
- hygroscopicity by DVS analysis (in words) [3]: not hygroscopic
- DVS weight loss upon equilibration at about 5% RH [3]: about 0.01%
- material recovered from the DVS analysis compared with starting material by XRPD [3]: substantially the same as the starting material
- DVS weight gain ([3]; from about 5 to about 95% RH): ~0.25%
- DVS weight loss [3]: ~0.26%
- Observation (deliquescence) [7]: no deliquescence

SMILES: O=C(O)c1cc(-c2ccc(OC3CC3)c(Cl)c2)ncn1 [Compound I diethanolamine Form A, 6-(3-chloro-4-cyclopropoxyphenyl)pyrimidine-4-carboxylic acid]
- aqueous solubility (in words) [6]: desirable aqueous solubility
- solubility [6]: above 260 mg/mL
- hygroscopicity by DVS analysis (in words) [3]: not hygroscopic
- DVS weight loss upon equilibration at about 5% RH [3]: about 0.2%
- material recovered from the DVS analysis compared with starting material by XRPD [3]: substantially the same as the starting material
- DVS weight gain ([3]; from about 5 to about 95% RH): ~0.48%
- DVS weight loss [3]: ~0.47%
- Observation (deliquescence) [7]: no deliquescence
